We go through 16 compounds from PubChem BioAssay (NCI).

What all share (assay): inhibition of tumour cell growth, NCI panel, 48 h
Experiment [1] relates to DMS 114 small cell lung.
For experiment [2], the system named is LXFL 529 NSCLC.
Experiment [3] has as its system DMS 273 small cell lung.
The test system of experiment [4] is DLD-1 colon.
For experiment [5], the system named is KM20L2 colon.
Experiment [6] has as its system SNB-78 CNS.
In experiment [7] the test system is XF 498 CNS.
For experiment [8], the system named is RXF-631 renal.
Experiment [9] has as its system HOP-18 NSCLC.

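Five concentrations, 48 hours, 96-well plates. TGI denotes the concentration required for complete inhibition of growth.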

Turning to `COc1cc(-c2cc(=O)c3ccccc3[nH]2)cc(OC)c1OC`, the TGI in experiment [1], in experiment [2], in [3], in experiment [4], in experiment [5] and in [6] was over 75 µM each time.

With `O=C(O)C12CC3CC(CC(F)(C3)C1)C2`, the TGI in [1], in experiment [2], in experiment [3], in experiment [7], in [4] and in experiment [5] was over 100 µM in each case. Besides, in experiment [6], the TGI was over 100 µM.

In the case of `Cc1nnc(N/N=C(/C(=O)C(C#N)c2ccc(Cl)cc2)C(C#N)c2ccc(Cl)cc2)n1N` (configuration not stated), the TGI in experiment [8] was found to be 35.4 µM; in [1] it was 31.4 µM; in experiment [2] it was 26.6 µM; in [3] it was 34 µM; in experiment [7], 46.6 µM; in experiment [4], 42.4 µM. In addition, the TGI was found to be 30 µM in experiment [9], 41.2 µM in experiment [5] and 51.3 µM in experiment [6].

With `CCc1ccccc1NC(=O)CC1NC(=O)CS1` (configuration not stated), the TGI in experiment [8], in [1], in [2], in [3], in experiment [7] and in [4] was over 100 µM throughout. The TGI in [9], in experiment [5] and in experiment [6] was over 100 µM in each case.

`CS(=O)(=O)C1(Br)S(=O)(=O)OCCOS1(=O)=O`: the TGI in experiment [1], in [2], in experiment [3], in experiment [7], in experiment [4] and in experiment [5] was over 100 µM throughout. In experiment [6], this compound had a TGI of over 100 µM.

Consider `CN(C)CC(/C(Cc1ccccc1)=N\NC(=S)NN)c1ccccc1` (configuration not stated), for which the TGI in [1], in [2], in experiment [3], in experiment [7], in experiment [4] and in [5] was over 100 µM throughout. For the same compound, in experiment [6], the TGI is over 100 µM.

Consider `O=C(Nc1nc2ncn(CCO)c2c(=O)[nH]1)c1ccccc1`, for which the TGI in experiment [1], in experiment [2], in [3], in experiment [4], in [9] and in [5] was over 100 µM each time. The compound also yielded a TGI in experiment [6] of over 100 µM.

For `Nc1nc2c(ncn2CCCC(c2ccccc2)P(=O)(O)O)c(=O)[nH]1` (configuration not stated), the TGI in experiment [1], in experiment [2], in [3], in [4], in experiment [9] and in [5] was over 100 µM throughout. The compound further came in with a TGI in experiment [6] of over 100 µM.

As to `CC(=O)Nc1ccc(S(=O)(=O)NN(C)S(=O)(=O)c2ccc(C)cc2)cc1`, the TGI in [1], in experiment [4] and in experiment [5] was over 100 µM throughout.

`COC(=O)c1ccc(C=C(C#N)C#N)cc1`: the TGI in experiment [8] was over 100 µM; in experiment [1], 49.4 µM; in [2], 37.4 µM; in [3], 35.2 µM; in [4], 47.9 µM; in [9], over 100 µM. Also, in experiment [5], the TGI is over 100 µM.

Turning to `NC(CCCCNCc1ccccc1O)C(=O)O` (configuration not stated), the TGI in [1], in experiment [2], in experiment [3], in [4], in [9] and in [5] was over 100 µM in each case. This compound also registered a TGI in experiment [6] of over 100 µM.

As to `O=C(CC(=O)c1ccccc1)C(=O)Nc1ccc(Cl)cc1`, the TGI in experiment [1] was over 57 µM; in experiment [2], over 100 µM; in [3], over 100 µM; in experiment [7], over 100 µM; in experiment [4], over 100 µM; in experiment [9], over 100 µM. For the same compound, the TGI in [5] and in experiment [6] was over 100 µM in each case.

`COc1ccc(/C=C/c2cc(OC)c(OCc3ccccc3)c(OC)c2)cc1`: the TGI in [8], in experiment [1], in experiment [2], in experiment [3], in experiment [7] and in experiment [4] was over 100 µM each time. The TGI in [5] and in experiment [6] was over 100 µM throughout.

In the case of `C/C(N=NS(=O)(=O)c1ccc(C)cc1)=C1\C=CC=CN1O`, the TGI in [8], in experiment [1], in experiment [2], in experiment [3], in experiment [7] and in [4] was over 100 µM each time. Further, the TGI in experiment [9], in experiment [5] and in experiment [6] was over 100 µM each time.

Consider `CN(C)C(F)=PC(F)(F)F` (configuration not stated), for which the TGI in experiment [1], in experiment [2], in experiment [3], in experiment [7], in experiment [4] and in experiment [9] was over 100 µM in each case. Besides, the TGI in experiment [5] and in experiment [6] was over 100 µM in each case.

Consider `CSc1ccc2c(cc1=O)C(NC(=O)c1ccc(C#N)cc1)CCc1cc(O)c(O)c(O)c1-2` (configuration not stated), for which the TGI in [8] was over 100 µM; in experiment [1], 44.9 µM; in experiment [2] it was 44.4 µM; in experiment [3], over 100 µM; in [7], 89.2 µM; in [4], 70.2 µM. The TGI is 45.5 µM in experiment [5] and over 100 µM in experiment [6].
